Results taken from paper PMC5618632, “In Vitro Glucuronidation of Wushanicaritin by Liver Microsomes, Intestine Microsomes and Expressed Human UDP-Glucuronosyltransferase Enzymes” (International Journal of Molecular Sciences, 2017).
Values joined by “and” are separate entries in the source; they are usually repeats but may differ in a detail not shown here. Identical values can stand only once. Each block holds one molecule with its values, some of them ahead of it.

Legend:
[1] = design: method as in PMID 21968061; settings: DPPH radical scavenging (antioxidant activity); cited from earlier work
[2] = Glucuronidation by rat liver microsomes (RLM); assay type: in vitro ADME; settings: for Km: rat, liver microsomes, read-out: Km or S50; for Ki: substrate inhibition constant
Method: (§1) The reaction was terminated by adding ice-cold acetonitrile. […] All experiments were performed in triplicate.
(§2) The parameter were as follow. V is the formation rate of the product. Vmax is the maximal velocity. […] Ksi is the substrate inhibition constant. […] (1) V=Vmax ×[S]/Km+[S] (2) V=Vmax ×[S]/Km + [S](1+[S]/Ksi)

[3] = Glucuronidation by guinea pig liver microsomes (GpLM); assay type: in vitro ADME; settings: for Km: guinea pig, liver microsomes, read-out: Km or S50
Method: as §1, §2

expressed human UGT1A1 = molecular target: T1, expressed human UGT1A1 (Homo sapiens, UniProt P22309); experiment: Glucuronidation by expressed UGT1A1; settings: substrate inhibition constant; formation of G1 (3-O-glucuronide); UGT1A1
T1 sequence (P22309 26-533): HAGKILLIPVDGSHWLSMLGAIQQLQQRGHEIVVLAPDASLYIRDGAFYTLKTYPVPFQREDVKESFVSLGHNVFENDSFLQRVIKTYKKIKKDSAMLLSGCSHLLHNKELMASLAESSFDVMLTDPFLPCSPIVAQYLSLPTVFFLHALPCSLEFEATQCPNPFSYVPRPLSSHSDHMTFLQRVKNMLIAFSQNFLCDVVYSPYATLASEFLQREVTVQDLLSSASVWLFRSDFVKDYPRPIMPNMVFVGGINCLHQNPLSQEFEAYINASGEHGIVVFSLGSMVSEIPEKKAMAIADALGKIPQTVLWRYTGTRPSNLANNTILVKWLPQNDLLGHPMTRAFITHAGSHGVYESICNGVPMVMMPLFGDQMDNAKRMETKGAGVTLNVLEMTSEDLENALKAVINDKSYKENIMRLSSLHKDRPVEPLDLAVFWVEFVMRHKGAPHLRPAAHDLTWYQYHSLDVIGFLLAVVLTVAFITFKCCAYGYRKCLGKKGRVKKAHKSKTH
Method: as §1
The gradient elution program was the same as the UPLC condition of the structural identification of wushanicaritin glucuronides above. The detection wavelength was set at 270 nm, and the injection volume was 8 µL.
as §2
The contribution of individual expressed UGT enzymes to wushanicaritin glucuronidation in HLM was evaluated by the relative activity factor (RAF) approach as described in previous studies. The relative activity factor was defined as the activity ratio of HLM to an expressed UGT enzyme (Supersome) toward a probe substrate for this enzyme using Equation (3). The relative amount of wushanicaritin glucuronidation in HLM attributed to an expressed UGT enzyme was estimated by multiplying the glucuronidation activity (i.e., the intrinsic clearance) derived with this enzyme by the corresponding RAF. […] The contributions of individual UGT enzyme were calculated according to Equation (4). (3) RAF=CLint{probe,pHLM}/CLint{probe,Supersome} (4) Contribution of UGTs=CLint(wushanica ritin,UGTs)/CLint(wushanica ritin,pHLM)×RAF

[4] = Glucuronidation by pooled human liver microsomes (HLM), UDPGA-supplemented; assay type: in vitro ADME; settings: for Km: human, pooled liver microsomes, read-out: Km or S50
Method: as §1, §2

[5] = Glucuronidation by rabbit liver microsomes (RaLM); assay type: in vitro ADME; settings: for Km: rabbit, liver microsomes, read-out: Km or S50
Method: as §1, §2

[6] = Glucuronidation by monkey liver microsomes (MkLM); assay type: in vitro ADME; settings: for Km: monkey, liver microsomes, read-out: Km or S50; for Ki: substrate inhibition constant
Method: as §1, §2

[7] = Glucuronidation by dog liver microsomes (DLM); assay type: in vitro ADME; settings: for Km: dog, liver microsomes, read-out: Km or S50; for Ki: substrate inhibition constant
Method: as §1, §2

[8] = Glucuronidation by human intestine microsomes (HIM); assay type: in vitro ADME; settings: for Km: human, intestine microsomes, read-out: Km or S50
Method: as §1, §2

[9] = human, pH 7.4
Method: Wushanicaritin was incubated with HLM, HIM and expressed UGTs enzymes to determine the rates of glucuronidation as published previously [12, 23, 31]. Briefly, the incubation mixture mainly contained 50 mM Tris-hydrochloric acid buffer (pH 7.4), 0.88 mM MgCl2, 22 µg/mL alamethicin, 4.4 mM saccharolactone and 3.5 mM UDPGA [32]. The reaction was terminated by adding ice-cold acetonitrile. The samples were vortexed and centrifuged at 13,800× g for 10 min. The supernatant was subjected to UPLC/Q-TOF-MS (Waters Corporation, Manchester, UK) analysis. […] Similarly, wushanicaritin was incubated with DLM, RLM, MkLM, RaLM and GpLM in the same way as for HLM. All experiments were performed in triplicate. Preliminary experiments were performed to ensure that the rates of glucuronidation were determined under linear conditions with respect to the incubation time and protein concentration.
Serial concentrations of wushanicaritin (0.156–20 µM) were incubated with HLM, HIM and expressed UGTs enzymes to determine wushanicaritin glucuronidation rates. […] Appropriate models were selected by visual inspection of the Eadie–Hofstee plot [34]. Model fitting and parameter estimation were performed by GraphPad Prism V5 software (GraphPad Software, Inc., San Diego, CA, USA).
V is the formation rate of the product. Vmax is the maximal velocity. Km is the Michaelis constant, and [S] is the substrate. […]

not read [10] = substrate: CC(C)c1cccc(C(C)C)c1O; experiment: not read; settings: other: probe substrate glucuronidation; UGT1A9; pH 7.4
not read [11] = substrate: COc1ccc(-c2oc3c(CCC(C)(C)O)c(O)cc(O)c3c(=O)c2O)cc1; experiment: not read; settings: UGT1A9, pH 7.4
Method: Briefly, the incubation mixture mainly contained 50 mM Tris-hydrochloric acid buffer (pH 7.4), 0.88 mM MgCl2, 22 µg/mL alamethicin, 4.4 mM saccharolactone and 3.5 mM UDPGA [32]. The reaction was terminated by adding ice-cold acetonitrile. […] The supernatant was subjected to UPLC/Q-TOF-MS (Waters Corporation, Manchester, UK) analysis. […] All experiments were performed in triplicate. Preliminary experiments were performed to ensure that the rates of glucuronidation were determined under linear conditions with respect to the incubation time and protein concentration.
Appropriate models were selected by visual inspection of the Eadie–Hofstee plot [34]. Model fitting and parameter estimation were performed by GraphPad Prism V5 software (GraphPad Software, Inc., San Diego, CA, USA).
V is the formation rate of the product. Vmax is the maximal velocity. Km is the Michaelis constant, and [S] is the substrate. Ksi is the substrate inhibition constant. The intrinsic clearance (CLint) was derived by Vmax/Km for the Michaelis–Menten and substrate inhibition models [12]. (1) V=Vmax ×[S]/Km+[S] (2) V=Vmax ×[S]/Km + [S](1+[S]/Ksi)
The contribution of individual expressed UGT enzymes to wushanicaritin glucuronidation in HLM was evaluated by the relative activity factor (RAF) approach as described in previous studies [2, 12]. The relative activity factor was defined as the activity ratio of HLM to an expressed UGT enzyme (Supersome) toward a probe substrate for this enzyme using Equation (3). The relative amount of wushanicaritin glucuronidation in HLM attributed to an expressed UGT enzyme was estimated by multiplying the glucuronidation activity (i.e., the intrinsic clearance) derived with this enzyme by the corresponding RAF. […] The contributions of individual UGT enzyme were calculated according to Equation (4). (3) RAF=CLint{probe,pHLM}/CLint{probe,Supersome} (4) Contribution of UGTs=CLint(wushanica ritin,UGTs)/CLint(wushanica ritin,pHLM)×RAF

[12] = formation of G1 (3-O-glucuronide)
[13] = formation of G2 (7-O-glucuronide)
[14] = pH 7.4, formation of G1 (3-O-glucuronide)
[15] = pH 7.4, formation of G2 (7-O-glucuronide)
[16] = other: formation of G1 (3-O-glucuronide)
[17] = other: formation of G2 (7-O-glucuronide)

Km [2, 14]: 0.66 ± 0.06 µM | Km [2, 15]: 0.45 ± 0.03 µM | Ki [2, 12]: 37.11 ± 5.82 µM | Ki [2, 13]: 44.22 ± 5.42 µM | Km [3, 14]: 2.53 ± 0.3 µM | Km [3, 15]: 0.93 ± 0.06 µM | Ki (expressed human UGT1A1): 17.150 ± 4.478 µM | Km [4, 14]: 1.07 ± 0.13 µM | Km [4, 15]: 0.5 ± 0.08 µM | Ki ([4]; substrate inhibition constant, formation of G1 (3-O-glucuronide)): 32.99 µM and 32.990 ± 6.717 µM | Km [5, 14]: 2.22 ± 0.26 µM | Km [5, 15]: 3.29 ± 0.39 µM | Km [6, 14]: 1.58 ± 0.25 µM | Km [6, 15]: 0.94 ± 0.08 µM | Ki [6, 12]: 11.57 ± 2.15 µM | Ki [6, 13]: 36.23 ± 5.13 µM | Km [7, 14]: 1.11 ± 0.16 µM | Km [7, 15]: 1.17 ± 0.13 µM | Ki [7, 12]: 29.09 ± 6.58 µM | Ki [7, 13]: 44.14 ± 9.09 µM | Km [8, 14]: 4.24 ± 0.75 µM | Km [8, 15]: 5.91 ± 1.1 µM | species difference in hepatic glucuronidation ([9]; dog, rat, monkey, rabbit, guinea pig): up to 60.0 fold | variability of kinetic parameters, rat versus humans [9]: ≤ 2.5 fold
Molecule: COc1ccc(-c2oc3c(CCC(C)(C)O)c(O)cc(O)c3c(=O)c2O)cc1 [wushanicaritin]
IC50 [1]: 35.3 µM | Vmax [2, 12]: 0.34 ± 0.01 nmol/min/mg | Vmax [2, 13]: 0.37 ± 0.009 nmol/min/mg | Vmax [3, 12]: 0.05 ± 0.002 nmol/min/mg | Vmax [3, 13]: 1.43 ± 0.06 nmol/min/mg | Vmax [4, 12]: 1.34 nmol/min/mg and 1.34 ± 0.08 nmol/min/mg | Vmax [4, 13]: 0.35 nmol/min/mg and 0.35 ± 0.01 nmol/min/mg | Vmax [5, 12]: 0.11 ± 0.004 nmol/min/mg | Vmax [5, 13]: 0.56 ± 0.02 nmol/min/mg | Vmax [6, 12]: 0.22 ± 0.02 nmol/min/mg | Vmax [6, 13]: 0.21 ± 0.008 nmol/min/mg | Vmax [7, 12]: 0.19 ± 0.01 nmol/min/mg | Vmax [7, 13]: 0.32 ± 0.02 nmol/min/mg | Vmax [8, 12]: 0.74 nmol/min/mg and 0.74 ± 0.05 nmol/min/mg | Vmax [8, 13]: 1.34 nmol/min/mg and 1.34 ± 0.10 nmol/min/mg

B1: expressed human UGT1A9 (Homo sapiens) (protein)
chain: GKLLVVPMDGSHWFTMRSVVEKLILRGHEVVVVMPEVSWQLGRSLNCTVKTYSTSYTLEDLDREFKAFAHAQWKAQVRSIYSLLMGSYNDIFDLFFSNCRSLFKDKKLVEYLKESSFDAVFLDPFDNCGLIVAKYFSLPSVVFARGILCHYLEEGAQCPAPLSYVPRILLGFSDAMTFKERVRNHIMHLEEHLLCHRFFKNALEIASEILQTPVTEYDLYSHTSIWLLRTDFVLDYPKPVMPNMIFIGGINCHQGKPLPMEFEAYINASGEHGIVVFSLGSMVSEIPEKKAMAIADALGKIPQTVLWRYTGTRPSNLANNTILVKWLPQNDLLGHPMTRAFITHAGSHGVYESICNGVPMVMMPLFGDQMDNAKRMETKGAGVTLNVLEMTSEDLENALKAVINDKSYKENIMRLSSLHKDRPVEPLDLAVFWVEFVMRHKGAPHLRPAAHDLTWYQYHSLDVIGFLLAVVLTVAFITFKCCAYGYRKCLGKKGRVKKAHKSKTH
Km (not read [10]): 45.91 ± 5.91 µM | K0.5 (not read [11]; [16]): 0.32 ± 0.03 µM | Vmax (not read [11]; [16]): 8e-05 µmol/min/mg | Vmax/Km (not read [11]; [16]): 240 µL/min/mg | K0.5 (not read [11]; [17]): 0.39 ± 0.06 µM | Vmax (not read [11]; [17]): 0.00011 µmol/min/mg | Vmax/Km (not read [11]; [17]): 270 µL/min/mg
